# US20070003481A1, “Method and composition to individualize Levodopa/Carbidopa therapy using a breath test” (priority 2005, published 2007)
# Columns and labels:
# [1] = biological target: T1, dopamine decarboxylase (DDC) (Homo sapiens, UniProt P20711); assay: 13CO2 breath test after 13C-labeled LD, with CD pretreatment or simultaneous CD; assay type: in vivo
# T1 construct: from tissue; host or cells: peripheral tissues of living human subjects (liver, kidney, gastrointestinal tract, capillary endothelium)
# T1 sequence (P20711 1-480): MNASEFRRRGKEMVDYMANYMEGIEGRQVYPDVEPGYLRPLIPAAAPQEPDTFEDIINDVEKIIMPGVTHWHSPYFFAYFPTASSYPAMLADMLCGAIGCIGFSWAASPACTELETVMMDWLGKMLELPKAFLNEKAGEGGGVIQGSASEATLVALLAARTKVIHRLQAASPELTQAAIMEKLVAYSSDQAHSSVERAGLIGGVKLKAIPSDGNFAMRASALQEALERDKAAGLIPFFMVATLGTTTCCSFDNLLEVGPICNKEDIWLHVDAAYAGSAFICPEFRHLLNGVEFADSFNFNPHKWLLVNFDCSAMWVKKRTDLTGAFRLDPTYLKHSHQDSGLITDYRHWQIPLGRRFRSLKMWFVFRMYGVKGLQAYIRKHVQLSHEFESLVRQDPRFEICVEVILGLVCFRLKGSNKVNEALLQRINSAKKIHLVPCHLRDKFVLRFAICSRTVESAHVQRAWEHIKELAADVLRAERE
# Description: ^13CO2 and ^12CO2 in exhaled breath samples is measured by IR spectrometry using the UBiT-IR300 (Meretek Diagnostics, Lafayette, CO; ^13CO2 urea breath analyzer instruction manual. Lafayette, CO: Meretek Diagnostics; 2002; A1-A2)^12 The amount of ^13CO2 present in breath samples is expressed as delta over baseline (DOB) that represents a change in the ^13CO2/^12CO2 ratio of breath samples collected before and after ^13C-labeled DDC enzyme substrate ingestion, e.g., ^13C-labeled LD. [formula]
# The amount of ^13C-labeled DDC substrate absorbed and released into the breath as ^13CO2 is determined for each time point using the equation described by Amarri (Amarri et al., Clin Nutr. 14:149-54 (1995)).
# The PDR is calculated using the formula: [formula] where ^13δ=[RS/RPDB)−1]×10^3 Rs=^13C:^12C in the sample RPDB=^13C:^12C in PDB (international standard PeeDeeBelemnite)=0.0112372) P is the atom % excess n is the number of labeled carbon positions δt, δ+1, δ0 are enrichments at times t, t+1 and predose respectively C is the CO2 production rate (C=300 [mmol/h]*BSA BSA=w^0.5378*h^0.3963*0.024265 (Body Surface Area) w: Weight (kg) h: Height (cm) Cmax is the highest value of DOB from the breath curve following ^13C-labeled DDC substrate. In one embodiment of the method, the ^13C-labeled DDC substrate is ^13C-labeled LD.
# The present studies employed the ^13CO2 breath test method of the present invention to determine the optimal dose of CD required to optimally suppress peripheral metabolism of ^13C-labeled LD in individual subjects (i.e., Vlt 1 and Vlt 2). Briefly, a pre-breath test sample was collected in normal human subjects after overnight fasting (12 h) in a 1.3 L aluminum bag (Otsuka Pharmaceutical Co., Ltd., Tokyo, Japan). Briefly, normal human subjects ingested varying dosages (e.g., 25 mg-200 mg CD) 1 h prior to administration of 100 mg ^13C-labeled LD on three successive days. Breath samples were collected at specified intervals following administration of ^13C-labeled LD to determine peripheral metabolic decarboxylation of the drug. That is, breath samples were collected at 5 minutes intervals for 40 minutes, at 10 minutes intervals to 90 minutes and 120 minutes. Metabolism of ^13C-labeled LD in the absence of CD administration served as control. The results of these studies are summarized FIGS. 5-8. There is a dose response to the inhibition of peripheral DDC enzyme activity by the inhibitor CD.
# The present studies examined the effect of CD preadministration on peripheral LD metabolism in human subjects. Briefly, normal human subjects ingested varying dosages (e.g., 25 mg-200 mg CD) either simultaneously, or up to 2 h prior to administration of ^13C-labeled LD. Breath samples were collected at specified intervals following administration of ^13C-labeled LD to determine peripheral metabolic decarboxylation of the ^13C-labeled LD. Metabolism of ^13C-labeled LD in the absence of CD administration served as control. The results of these studies are summarized below in Table 1 as well as FIGS. 9-14.
# In Table 1, figures in parenthesis are percent inhibition of DDC by CD. The delta over baseline of ^13CO2 is designated as DOB. The percentage of LD dose recovered as ^13CO2 is designated as PDR. The peak breath concentration of ^13CO2 is designated as Cmax.
# Breath samples are collected at 5 min time points up to 40 min and at 10 min intervals to 90 min and at 120 min after ingestion of ^13C-labeled LD. The breath samples are collected by having the subject momentarily holding their breath for 3 seconds prior to exhaling into a sample collection bag. The breath samples are analyzed on a UBiT IR-300 spectrophotometer (Meretek, Denver, Colo.) to determine the ^13CO2/^12CO2 ratio in expired breath, or sent to a reference lab. Optionally, varying doses (10-400 mg) of CD are orally administered to the subject (10 min-6 h) prior to administration of the ^13C-labeleld LD.
# peripheral DDC = biological target: T2, peripheral DDC (Homo sapiens, UniProt P20711); details: CD doses used in current clinical practice; cited from earlier work
# T2 construct: host or cells: human subjects in vivo (cited study)
# T2 sequence (P20711 1-480): T1 sequence (P20711 1-480)
# [2] = 50 mg oral CD; serum CD time course; good/rapid (N=4) and poor/slow (N=5) absorbers; cited from earlier work
# [3] = subject Vlt 1, CD 25 mg 1 h prior to LD
# [4] = subject Vlt 1, CD 25 mg simultaneous with LD
# [5] = subject Vlt 1, CD 50 mg 1 h prior to LD
# [6] = subject Vlt 1, CD 50 mg simultaneous with LD
# [7] = subject Vlt 1, CD 100 mg 1 h prior to LD
# [8] = subject Vlt 1, CD 100 mg simultaneous with LD
# [9] = subject Vlt 2, CD 50 mg 1 h prior to LD
# [10] = subject Vlt 2, CD 50 mg simultaneous with LD
# [11] = subject Vlt 2, CD 100 mg 1 h prior to LD
# [12] = subject Vlt 2, CD 100 mg simultaneous with LD
# [13] = subject Vlt 2, CD 200 mg 1 h prior to LD
# [14] = subject Vlt 2, CD 200 mg simultaneous with LD
compound,measurement,setting,value
"C[C@@](Cc1ccc(O)c(O)c1)(NN)C(=O)O [CD, (−)-L-a-hydrazino-a-methyl-b-(3,4-dihydroxybenzene) propanoic acid monohydrate]","suppression of peripheral decarboxylation, simultaneous ingestion of CD/LD","[1]; 25 mg or 50 mg dose of CD and 100 mg of LD, simultaneous",did not completely suppress
same,"suppression of DDC, CD administered 1 h prior to LD dose",[1]; Vlt 1 and Vlt 2,maximal suppression
same,"inhibition of peripheral DDC enzyme activity, dependence on CD dose","[1]; Vlt 1 and Vlt 2, 25 mg-200 mg CD 1 h prior to 100 mg 13C-labeled LD",dose response
same,"level of peripheral metabolism of 13C-labeled LD, CD 1 h prior versus 2 h prior to LD",[1]; human subject,no significant difference
same,"inhibition of peripheral metabolism of 13C-labeled LD, CD prior (1 h or 2 h) compared to simultaneous",[1]; normal human subjects,greater
same,peripheral metabolism of 13C-labeled LD versus control level,"[1]; normal human subjects, all concentrations of CD tested",significantly inhibited
same,DOB20: DOB value at 20 minutes after administration of 13C-labeled LD,[1]; [3],25.8
same,PDR40: PDR value at 40 minutes after administration of 13C-labeled LD,[1]; [3],12.7%
same,percent inhibition of DDC by CD (Cmax),[1]; [3],54%
same,percent inhibition of DDC by CD (DOB20),[1]; [3],43%
same,percent inhibition of DDC by CD (PDR40),[1]; [3],57%
same,DOB20: DOB value at 20 minutes after administration of 13C-labeled LD,[1]; [4],35.6
same,PDR40: PDR value at 40 minutes after administration of 13C-labeled LD,[1]; [4],18.7%
same,percent inhibition of DDC by CD (Cmax),[1]; [4],20%
same,percent inhibition of DDC by CD (DOB20),[1]; [4],22%
same,percent inhibition of DDC by CD (PDR40),[1]; [4],37%
same,DOB20: DOB value at 20 minutes after administration of 13C-labeled LD,[1]; [5],6.8
same,PDR40: PDR value at 40 minutes after administration of 13C-labeled LD,[1]; [5],3.6%
same,percent inhibition of DDC by CD (Cmax),[1]; [5],88%
same,percent inhibition of DDC by CD (DOB20),[1]; [5],85%
same,percent inhibition of DDC by CD (PDR40),[1]; [5],88%
same,DOB20: DOB value at 20 minutes after administration of 13C-labeled LD,[1]; [6],25.5
same,PDR40: PDR value at 40 minutes after administration of 13C-labeled LD,[1]; [6],11.7%
same,percent inhibition of DDC by CD (Cmax),[1]; [6],57%
same,percent inhibition of DDC by CD (PDR40),[1]; [6],61%
same,DOB20: DOB value at 20 minutes after administration of 13C-labeled LD,[1]; [7],10.6
same,PDR40: PDR value at 40 minutes after administration of 13C-labeled LD,[1]; [7],5.3%
same,percent inhibition of DDC by CD (Cmax),[1]; [7],82%
same,percent inhibition of DDC by CD (DOB20),[1]; [7],77%
same,percent inhibition of DDC by CD (PDR40),[1]; [7],82%
same,DOB20: DOB value at 20 minutes after administration of 13C-labeled LD,[1]; [8],16.5
same,PDR40: PDR value at 40 minutes after administration of 13C-labeled LD,[1]; [8],9.1%
same,percent inhibition of DDC by CD (Cmax),[1]; [8],70%
same,percent inhibition of DDC by CD (DOB20),[1]; [8],64%
same,percent inhibition of DDC by CD (PDR40),[1]; [8],69%
same,DOB20: DOB value at 20 minutes after administration of 13C-labeled LD,[1]; [9],12.6
same,PDR40: PDR value at 40 minutes after administration of 13C-labeled LD,[1]; [9],8.3%
same,percent inhibition of DDC by CD (Cmax),[1]; [9],48%
same,percent inhibition of DDC by CD (DOB20),[1]; [9],66%
same,percent inhibition of DDC by CD (PDR40),[1]; [9],56%
same,DOB20: DOB value at 20 minutes after administration of 13C-labeled LD,[1]; [10],15.4
same,PDR40: PDR value at 40 minutes after administration of 13C-labeled LD,[1]; [10],11.0%
same,percent inhibition of DDC by CD (Cmax),[1]; [10],32%
same,percent inhibition of DDC by CD (DOB20),[1]; [10],58%
same,percent inhibition of DDC by CD (PDR40),[1]; [10],41%
same,DOB20: DOB value at 20 minutes after administration of 13C-labeled LD,[1]; [11],13.5
same,PDR40: PDR value at 40 minutes after administration of 13C-labeled LD,[1]; [11],7.8%
same,percent inhibition of DDC by CD (Cmax),[1]; [11],63%
same,percent inhibition of DDC by CD (DOB20),[1]; [11],63%
same,percent inhibition of DDC by CD (PDR40),[1]; [11],59%
same,DOB20: DOB value at 20 minutes after administration of 13C-labeled LD,[1]; [12],26.7
same,PDR40: PDR value at 40 minutes after administration of 13C-labeled LD,[1]; [12],14.1%
same,percent inhibition of DDC by CD (Cmax),[1]; [12],27%
same,percent inhibition of DDC by CD (DOB20),[1]; [12],27%
same,percent inhibition of DDC by CD (PDR40),[1]; [12],25%
same,DOB20: DOB value at 20 minutes after administration of 13C-labeled LD,[1]; [13],8.8
same,PDR40: PDR value at 40 minutes after administration of 13C-labeled LD,[1]; [13],5.7%
same,percent inhibition of DDC by CD (Cmax),[1]; [13],75%
same,percent inhibition of DDC by CD (DOB20),[1]; [13],76%
same,percent inhibition of DDC by CD (PDR40),[1]; [13],70%
same,DOB20: DOB value at 20 minutes after administration of 13C-labeled LD,[1]; [14],20.5
same,PDR40: PDR value at 40 minutes after administration of 13C-labeled LD,[1]; [14],12.0%
same,percent inhibition of DDC by CD (Cmax),[1]; [14],44%
same,percent inhibition of DDC by CD (PDR40),[1]; [14],36%
same,saturation of peripheral DDC activity,peripheral DDC,not saturated
same,absorption of CD among human subjects,[2],variable
